In patent publication US12441976B2, “Process for reducing the activity of microbial contamination in a yeast medium” (Lallemand Hungary Liquidity Management LLC, priority 2020, dated 2025):

Tested on: contaminating wild-type microbial cells (obtained from a commercial plant)
Assay: laboratory scale model: antimicrobial treatment of pasteurized corn mash, change in pH after 12 hours
Type: cell-based
Protocol: A laboratory model has been developed to characterize the microbial activity of various components (in isolation and in combination). Briefly, cycloheximide and glucose are added to a pasteurized corn mash (step 010). At step 020, the pasteurized mash was supplemented with an antimicrobial composition and submitted to an acidic treatment. More specifically, at substep 021, an antimicrobial composition was added to the pasteurized mash. Then, at substep 022, contaminating wild-type microbial cells (obtained from a commercial plant) were added. Afterwards, at substep 023, the mash was submitted to an acidic treatment with sulfuric acid. The mash was held in such acidic conditions for 30 minutes at 33° C. (step 030). A base was then added to the acidic mash to increase the pH of the mixture (to a level suitable for the growth and metabolic activity of yeasts, step 040). The neutralized mash obtained after step 040 was maintained at 12 hours at 33° C. (step 050). Step 050 was used to allow, if any, the bacterial growth to measure the antimicrobial efficiency of the different treatments. At step 060, the pH and the presence of different metabolites (using HPLC) were determined.

Molecule | inhibition, in words (organic acid alone, 0.1% w/v, pH 3.2) | antimicrobial effectiveness, in words (100 ppm nisin added after the pH was raised to 5.5)
O=CO [formate] | greater inhibition than acetate or D/L lactate only | 
nisin |  | more effective than adding nisin as a part of the antimicrobial blend
